IC50 data for six compounds are collected here from patent US5470859A (priority 1989, dated 1995).

Counter-ions that a name gives are not always drawn. Like-named read-outs stand apart in the source and are kept apart here.

In experiment [1] the target is muscarinic receptors. The experiment can be described thus: Radio ligand binding: displacement of the muscarinic agonist 3H-Oxotremorine-M (3H-OXO-M), rat cerebral cortex. The settings on record: 2 nM 3H-OXO-M, rat cerebral cortex membranes, 2 mM magnesium chloride, 37° C., 30 min. Further details: species or system Hooded Lister rats.
Experiment [2] addresses muscarinic receptors. In kind it is binding, Hooded Lister rats. As to conditions: 0.27 nM 3H-QNB, rat cerebral cortex membranes, 37° C., 30 min.

For orientation: IC50 means the concentration that gives 50% inhibition. Read a low IC50 as higher potency. For the compound `Nc1noc(/C=C2\CN3CCC2C3)n1` (racemic) [Example E1, (±) Z 3-([3-Amino-1,2,4-oxadiazol-5-yl]methin)-1-azabicyclo[2.2.1]heptane], the IC50 in experiment [1] was determined as 11.8 nM; in experiment [2], 3200 nM.
With `Cc1noc(/C=C2\CN3CCC2C3)n1` (racemic) [Example E2, (±) Z 3-([3-Methyl-1,2,4-oxadiazol-5-yl]methin)-1-azabicyclo[2.2.1]heptane oxalate salt], the IC50 in experiment [1] was 30 nM; in experiment [2] it was 1900 nM.
The like results for `C(=C1CN2CCC1C2)c1cnco1` (racemic) [Example E4, (±)E/Z 3-([1,3-Oxazol-5-yl]methin)-1-azabicyclo[2.2.1]heptane oxalate salt] were, in that order, 294 nM and 27900 nM.
For `C(=C1/CN2CCC1C2)/c1ncco1` (racemic) [Example E5, (±) Z 3-([1,3-Oxazol-2-yl]methin)-1-azabicyclo[2.2.1]heptane], in that order: 8.6 nM and 1800 nM.
The like results for `Nc1noc(C=C2CC3CCN(C2)C3)n1` (racemic) [Example E6, (±)E/Z 3-([3-Amino-1,2,4-oxadiazol-5-yl]methin)-1-azabicyclo[3.2.1]octane] were, in that order, 520 nM and 5700 nM.
Consider `C(=C1/CN2CCC1C2)/c1nccs1` (racemic) [Example E10, (±) Z 3-([1,3-Thiazol-2-yl]methin)-1-azabicyclo[2.2.1]heptane oxalate salt], for which the figures for the IC50 in experiment [1] and in experiment [2] were 165 nM and 2500 nM, respectively.
